Source: patent publication US9499511B2, “N-substituted hydroxylamine derivatives with carbon-based leaving groups” (The Johns Hopkins University, priority 2011, dated 2016)
Where a name gives a salt, the structure may show the parent alone.

Assays:
[1] = Decomposition monitored by 1H NMR spectroscopy (carbanion yield, kinetics, half-life); format: physicochemical; settings: 10% D2O
Description: […] In each case, the bottom spectrum was collected at the start of the experiment, and the top spectrum after complete decomposition.
NMR spectra were obtained on a Bruker Avance 400 MHz FT-NMR spectrometer. […] High-resolution mass spectra were obtained on a VG Analytical VG70SE magnetic sector mass spectrometer operating in fast atom bombardment (FAB) mode. […]

[2] = Decomposition kinetics monitored by UV-Vis spectroscopy; format: physicochemical
Description: NMR spectra were obtained on a Bruker Avance 400 MHz FT-NMR spectrometer. […] High-resolution mass spectra were obtained on a VG Analytical VG70SE magnetic sector mass spectrometer operating in fast atom bombardment (FAB) mode. […] Phosphate-buffered saline (PBS) solutions (0.1 M) were prepared with 140 mM NaCl and 3 mM KCl, with 100 μM diethylenetriaminepentaacetic acid (DTPA), adjusted to pH 7.4.

[3] = N2O headspace analysis (GC) of HNO production, relative to Angeli's salt; format: physicochemical; settings: for HNO / N2O production (in words): decomposition at pH 7.4; for % HNO: donor 0.1 mM, 37° C., PBS pH 7.4, yield relative to Angeli's salt by N2O headspace analysis, SEM ±5%, n = 3
Description: Nitrous oxide is produced via the dimerization and dehydration of HNO, and is the most common marker for HNO production (Fukuto, J. M. et al., Chem. Res. Toxicol. 2005, 18, 790-801).
Gas chromatography was performed on a Varian CP-3800 instrument equipped with a 1041 manual injector, electron capture detector, and a 25 m 5 Å molecular sieve capillary column. Grade 5.0 nitrogen was used as both the carrier (8 mL/min) and the make-up (22 mL/min) gas. The injector oven and the detector oven were kept at 200° C. and 300° C., respectively. All nitrous oxide analyses were performed with the column oven held constant at 150° C. All gas injections were made using a 100 μL gastight syringe with a sample-lock. Samples were prepared in 15 mL amber headspace vials with volumes pre-measured for sample uniformity (actual vial volume ranges from 15.19-15.20 mL). Vials were charged with 5 mL of PBS buffer containing DTPA, purged with argon, and sealed with a rubber septum. The vials were equilibrated for at least 10 minutes at 37° C. in a dry block heater. A 10 mM stock solution of Angeli's salt (AS) was prepared in 10 mM sodium hydroxide, and HNO donors 1a-4a, 6a (10 mM) were prepared in acetonitrile or methanol and used immediately after preparation. From these stock solutions, 50 μL was introduced into individual thermally-equilibrated headspace vials using a gastight syringe, yielding final substrate concentrations of 0.1 mM. Substrates were then incubated long enough to ensure complete decomposition and equilibration of N2O with the headspace. The headspace (60 μL) was then sampled and injected five successive times using a gastight syringe with a sample lock. This was repeated for n≧3 vials per donor. The nitrous oxide yield was averaged and reported relative to the standard, Angeli's salt. For chemical trapping of HNO, glutathione (100 μL of 10 mM in PBS) was added prior to HNO donor addition to give a final glutathione concentration of 0.2 mM, and headspace sampling for N2O was analogously performed as stated above.

Sprague-Dawley rats = assay: Acute cardiovascular effects, pressure-volume (PV) loop analysis in anesthetized rats; format: in vivo, rat; settings: IV infusion 100 μg/kg/min, 5 rats
Description: The acute cardiovascular effects of compounds 4a and 6a, when administered intravenously to Sprague-Dawley rats at an infusion rate of 100 μg/kg/min, were examined by means of pressure-volume (PV) curve (loops) analysis. PV families/relationships were generated via pre-load variation and hemodynamic indices were compared to baseline values. Each test article was administered to 5 rats.
Rats were intraperitoneally (IP) anesthetized to effect with pentobarbital (˜50 mg/kg), shaved and positioned in dorsal recumbence, endotracheally intubated and ventilated […], ˜2.5 mL tidal volume with 95% O2/5% CO2) with an adjustable small animal ventilator (Harvard Apparatus). Anesthesia was maintained with a continuous pentobarbital infusion (to effect, ˜3 to 5 mg/kg/h, IV) until completion of the experiment via an indwelling catheter placed in a femoral vein. Subsequently, transthoracic needle electrodes forming a single-lead ECG were placed. For LV mechano-energetic evaluation, the right carotid artery was isolated, dissected free from the surrounding tissue, and cannulated with a 2F high-fidelity conductance/micromanometer catheter (Millar Instruments). This catheter was advanced retrograde across the aortic valve and into the LV chamber in order to simultaneously determine left-ventricular pressure and volume (via conductivity). […] Meanwhile, in order to record arterial pressures, a 2F high-fidelity micromanometer catheter (Millar Instruments) was inserted into a femoral artery and advanced towards the abdominal aorta. Finally, an in-dwelling catheter was placed into the jugular vein for administration of test article.
Following collection of baseline hemodynamic data, infusion of test article was initiated at an infusion rate of 100 μg/kg/min; at 10 μL/min. Pressure-volume analyses were performed again approximately 30 min and 45 min after the initiation of the dose.
The resulting left-ventricular pressure and volume data was analyzed offline (IOX/ECG Auto; EMKA Technologies) in order to generate relationships representing the contractile and energetic state of the myocardium. Systolic (SAP), diastolic (DAP), and mean (MAP) arterial pressures were collected. Left-ventricular mechanical and/or geometrical indices were obtained from the pressure (ESP, EDP, dP/dt max/min, time-constant of relaxation—tau [based on mono-exponential decay with non-zero asymptote]) and volume (ESV, EDV, SV) signal. In addition, the following measurements were derived from left-ventricular pressure-volume data (PV loops) generated during brief periods of preload reduction: • Pressure volume area (PVA) and stroke work (SW). • End-systolic (ESPVR) and end-diastolic (EDPVR) pressure volume relationships. • End systolic pressure and stroke volume relationship (Arterial Elastance, Ea).
Data are presented as means with standard errors (mean±SEM) in Table 6.

[4] = comparison value; cited from earlier work
[5] = PBS, pH 7.4, Condition G: pH 7.4, 37° C., 0.25M PBS, 100 μL DTPA, air (1H NMR)
[6] = PBS, pH 7.4, Condition B: pH 7.4, 37° C., 0.25M PBS, no chelator, air (1H NMR)

SMILES: CC1=NN(c2ccc(Cl)cc2)C(=O)C1(C)NO (stereo not shown) [Compound 10a, 4-(N-hydroxylamine)-4-methyl-N-(4-chlorophenyl)-5-methyl-pyrazolone]
- half-life [1, 5]: 5040 min

SMILES: CO/N=C(\C)C1(NO)C(=O)N(C)C(=O)N(C)C1=O [Compound 4a, 5-(N-hydroxylamine)-5-(acetyl-O-methoxyoxime)-N,N-dimethylbarbituric acid]
- decomposition rate constant k (single exponential fit) ([1]; 4a to 4b, PBS, pH 7.4, room temperature): 0.0024 s⁻¹
- half-life ([2]; buffer, pH 4, pH 4.0 and room temperature, read-out: half-life (converted)): ~1440 min
- half-life ([2]; buffer, pH 7.4, footnote c not given, pH 7.4, 37° C., read-out: t1/2): 0.7 min
- half-life ([2]; buffer, pH 7.4, pH 7.4 and 37° C., read-out: half-life (converted)): ~1 min
- pH near which the decomposition rate sharply increases ([2]; decomposition rate as a function of pH at 25° C., UV-Vis): ~8
- HNO / N2O production (in words) [3]: high yield of N2O
- % HNO [3]: 110%
- Mean Blood Pressure (Sprague-Dawley rats; baseline 124 (4a) / 138 (6a)): 71 mmHg
- Stroke Volume (Sprague-Dawley rats; mean, baseline 1 (4a) / 2.2 (6a)): 1.2 relative volume units
- End Diastolic Pressure Volume Relationship (Sprague-Dawley rats; mean, baseline 1.7 (4a) / 1.8 (6a)): 1.6
- End Diastolic Pressure (Sprague-Dawley rats; mean, baseline 4.7 (4a) / 4.4 (6a)): 3.4 mmHg
- Tau (Sprague-Dawley rats; mean, baseline 8.5 (4a) / 8.7 (6a)): 7.8 ms
- Arterial Elastance (Sprague-Dawley rats; mean, baseline 9.2 (4a) / 7.4 (6a)): 4.8
- End Diastolic Volume (Sprague-Dawley rats; mean, baseline 14.6 (4a) / 19.2 (6a)): 15 relative volume units
- End Systolic Pressure Volume Relationship (Sprague-Dawley rats; mean, baseline 28.1 (4a) / 23.7 (6a)): 34.1
- Pre-Load Recruitable Stroke Work (Sprague-Dawley rats; mean, baseline 37.6 (4a) / 42.8 (6a)): 54.3
- Diastolic Blood Pressure (Sprague-Dawley rats; mean, baseline 109 (4a) / 121 (6a)): 62 mmHg
- Stroke Work (Sprague-Dawley rats; mean, baseline 112 (4a) / 227 (6a)): 74 relative volume units × mmHg
- End Systolic Pressure (Sprague-Dawley rats; mean, baseline 134 (4a) / 141 (6a)): 71 mmHg
- Systolic Blood Pressure (Sprague-Dawley rats; mean, baseline 147 (4a) / 160 (6a)): 85 mmHg
- Pressure Volume Area (Sprague-Dawley rats; mean, baseline 343 (4a) / 590 (6a)): 151
- Heart Rate (Sprague-Dawley rats; mean, baseline 365 (4a) / 340 (6a)): 350 bp, m
- Left Ventricular +dP/dt (Sprague-Dawley rats; mean, baseline 6392 (4a) / 7689 (6a)): 3518 mmHg/s
- Left Ventricular −dP/dt (Sprague-Dawley rats; mean, baseline −7585 (4a) / −8257 (6a)): −4096 mmHg/s

SMILES: CO/N=C(\C)C1(NO)C(=O)OC(C)(C)OC1=O [Compound 2a, 5-(N-hydroxylamine)-5-(acetyl-O-methoxyoxime)-Meldrum's acid]
- half-life ([2]; PBS, pH 7.4, footnote c not given, pH 7.4, 37° C., read-out: t1/2): 0.9 min
- HNO / N2O production (in words) [3]: enhanced HNO yield
- % HNO [3]: 25%

SMILES: CC1=NN(c2ccccc2Cl)C(=O)C1(C)NO (stereo not shown) [Compound 11a, 4-(N-hydroxylamine)-4-methyl-N-(2-chlorophenyl)-5-methyl-pyrazolone]
- half-life [1, 5]: 7200 min

SMILES: CC1=NN(c2ccccc2)C(=O)C1(C)NO (stereo not shown) [Compound 8a, 4-(N-hydroxylamine)-4-methyl-N-phenyl-5-methyl-pyrazolone]
- half-life [1, 6]: 960 min
- half-life ([1]; PBS, pH 7.4, Condition C: pH 7.4, 37° C., 0.25M PBS, 100 μL DTPA, BME (20 equiv.), argon (1H NMR)): 1680 min
- half-life ([1]; PBS, pH 7.4, Condition D: pH 7.4, 37° C., 0.25M PBS, 100 μL DTPA, GSH (2 equiv.), argon (1H NMR)): 3000 min
- half-life ([1]; PBS, pH 7.4, Condition E: pH 7.4, 37° C., 0.25M PBS, 100 μL DTPA, 12b (1 equiv.), air (1H NMR)): 6000 min

SMILES: CC1=NNC(=O)C1(C)NO (stereo not shown) [Compound 12a, 4-(N-hydroxylamine)-4-methyl-5-methyl-pyrazolone]
- % remains after 7 d ([1]; Condition G: pH 7.4, 37° C., 0.25M PBS, 100 μL DTPA, air (1H NMR)): 70% remains after 7 d

SMILES: CCC1(NO)C(=O)N(C)C(=O)N(C)C1=O [Compound 3a, 5-(N-hydroxylamine)-5-ethyl-N,N-dimethylbarbituric acid hydrochloride]
- HNO / N2O production (in words) [3]: produced little HNO
- % HNO [3]: 2%

SMILES: CN1C(=O)CC(=O)N(C)C1=O [N,N-dimethyl barbituric acid]
- pKa [4]: 4.7

SMILES: CC1=NN(C)C(=O)C1(C)NO (stereo not shown) [Compound 9a, 4-(N-hydroxylamine)-4-methyl-N-methyl-5-methyl-pyrazolone]
- % remains after 48 h ([1]; Condition F: pH 7.4, 37° C., 0.25M PBS, no chelator, nitrogen (1H NMR)): 84% remains after 48
- half-life [1, 6]: 2880 min

SMILES: CC1=NN(c2ccccc2)C(=O)C1 [edaravone]
- pKa [4]: 7

SMILES: CC1(C)OC(=O)CC(=O)O1 [Meldrum's acid]
- pKa [4]: 4.8

SMILES: CC1(C)OC(=O)C(C)(NO)C(=O)O1 [Compound 1a, 5-(N-hydroxylamine)-5-methyl-Meldrum's acid hydrochloride monohydrate]
- HNO / N2O production (in words) [3]: only trace amounts of N2O
- % HNO [3]: 2%
